# Read-outs that look alike come from different tables or passages of the source.
# Assays:
# Format in all cases: cell-based
# M. immunogenum group = test: MIC (CLSI broth dilution), RGM isolates; settings: M. immunogenum, read-out: MIC
# M. chelonae = test: MIC (CLSI broth dilution), RGM isolates; settings: Mycobacteroides chelonae, read-out: MIC
# [1] = system: H37Rv strain of Mycobacterium tuberculosis; test: MIC against H37Rv strain; settings: Mycobacterium tuberculosis, H37RV
# Experimental: The purpose of this study was to test activity of selected tetracycline compounds against the H37Rv strain of Mycobacterium tuberculosis. Minimum inhibitory concentrations (MIC) of different tetracycline compounds against H37Rv strain were determined and are shown in Table 8.
smiles,measurement,setting,value
"NC[C@H]1O[C@H](O[C@H]2[C@H](O)[C@@H](O[C@H]3O[C@H](CO)[C@@H](O)[C@H](N)[C@H]3O)[C@H](N)C[C@@H]2N)[C@H](N)C[C@@H]1O [TOB, tobramycin]",MIC,"M. immunogenum group; isolate 36, M. immunogenum group",8 µg/mL
same,MIC,"M. immunogenum group; isolate 37, M. immunogenum group",> 8 µg/mL
same,MIC,"M. immunogenum group; isolate 38, M. immunogenum group",> 8 µg/mL
same,MIC,"M. chelonae; isolate 18, M. chelonae",≤ 2 µg/mL
same,MIC,"M. chelonae; isolate 19, M. chelonae",≤ 2 µg/mL
same,MIC,"M. chelonae; isolate 20, M. chelonae",≤ 2 µg/mL
same,MIC,"M. chelonae; isolate 21, M. chelonae",≤ 2 µg/mL
same,MIC,"M. chelonae; isolate 22, M. chelonae",≤ 2 µg/mL
CC(=O)c1ccc(NC(=O)NCc2cc(N(C)C)c3c(c2O)C(=O)C2=C(O)[C@]4(O)C(=O)C(C(N)=O)=C(O)[C@@H](N(C)C)[C@@H]4C[C@@H]2C3)cc1 [Compound 25],MIC,[1]; read-out: MIC,> 32 µg/mL
CN(C)c1cc(CNC(=O)OCC(Cl)(Cl)Cl)c(O)c2c1C[C@H]1C[C@H]3[C@H](N(C)C)C(O)=C(C(N)=O)C(=O)[C@@]3(O)C(O)=C1C2=O [Compound 22],MIC,[1]; read-out: MIC,> 32 µg/mL
CN(C)c1cc(CNCC2CC2)c(O)c2c1C[C@H]1C[C@H]3[C@H](N(C)C)C(O)=C(C(N)=O)C(=O)[C@@]3(O)C(O)=C1C2=O [Compound 65],MIC,[1]; read-out: MIC,16 µg/mL
CN1CCC(NCc2cc(N(C)C)c3c(c2O)C(=O)C2=C(O)[C@]4(O)C(=O)C(C(N)=O)=C(O)[C@@H](N(C)C)[C@@H]4C[C@@H]2C3)CC1 [Compound 47],MIC,[1]; read-out: MIC,> 32 µg/mL
CN(C)c1cc(CNC(=O)C2(N)CC2)c(O)c2c1C[C@H]1C[C@H]3[C@H](N(C)C)C(O)=C(C(N)=O)C(=O)[C@@]3(O)C(O)=C1C2=O [Compound 59],MIC,[1]; read-out: MIC,16 µg/mL
CN(C)[C@@H]1C(O)=C(C(N)=O)C(=O)[C@@]2(O)C(O)=C3C(=O)c4c(O)c(CNC(=O)c5cccnc5)cc(CCC5CCCCC5)c4C[C@H]3C[C@@H]12 [Compound 2],MIC,[1]; read-out: MIC,> 32 µg/mL
CCOC(=O)c1csc(NCc2cc(N(C)C)c3c(c2O)C(=O)C2=C(O)[C@]4(O)C(=O)C(C(N)=O)=C(O)C(N(C)C)[C@@H]4C[C@@H]2C3)n1 (some centres unmarked) [Compound 63],MIC,[1]; read-out: MIC,> 32 µg/mL
CN(C)c1cc(CNC(N)=S)c(O)c2c1C[C@H]1C[C@H]3[C@H](N(C)C)C(O)=C(C(N)=O)C(=O)[C@@]3(O)C(O)=C1C2=O [Compound 61],MIC,[1]; read-out: MIC,> 32 µg/mL
CN(C)c1cc(CN2CCCCC2)c(O)c2c1C[C@H]1C[C@H]3[C@H](N(C)C)C(O)=C(C(N)=O)C(=O)[C@@]3(O)C(O)=C1C2=O [Compound 56],MIC,[1]; read-out: MIC,16 µg/mL
CN(C)c1cc(CNCc2ccc(C#N)cc2)c(O)c2c1C[C@H]1C[C@H]3C(N(C)C)C(O)=C(C(N)=O)C(=O)[C@@]3(O)C(O)=C1C2=O (some centres unmarked) [Compound 78],MIC,[1]; read-out: MIC,32 µg/mL
CN(C)[C@H]1C(O)=C(C(N)=O)C(=O)[C@@]2(O)C(O)=C3C(=O)c4c(O)c(CN)cc(-c5ccccc5)c4C[C@H]3C[C@@H]12 [Compound 32],MIC,[1]; read-out: MIC,> 32 µg/mL
CN(C)c1cc(CNCC(C)(C)C)c(O)c2c1C[C@H]1C[C@H]3C(N(C)C)C(O)=C(C(N)=O)C(=O)[C@@]3(O)C(O)=C1C2=O (some centres unmarked) [Compound 29],MIC,[1]; read-out: MIC,32 µg/mL
Cc1ccc(OC(=O)NCc2cc(N(C)C)c3c(c2O)C(=O)C2=C(O)[C@]4(O)C(=O)C(C(N)=O)=C(O)[C@@H](N(C)C)[C@@H]4C[C@@H]2C3)cc1 [Compound 20],MIC,[1],> 32 µg/mL
CC(C)COC(=O)NCc1cc(N(C)C)c2c(c1O)C(=O)C1=C(O)[C@]3(O)C(=O)C(C(N)=O)=C(O)[C@H](N(C)C)[C@@H]3C[C@@H]1C2 [Compound 11],MIC,[1]; read-out: MIC,> 32 µg/mL
CN(C)c1cc(CNCC(C)(C)C)c(O)c2c1C[C@H]1C[C@H]3[C@H](N(C)C)C(O)=C(C(N)=O)C(=O)[C@@]3(O)C(O)=C1C2=O [Compound 17],MIC,[1]; read-out: MIC,32 µg/mL
CN(C)c1cc(CNC(=O)OCC(C)(C)C)c(O)c2c1C[C@H]1C[C@H]3[C@H](N(C)C)C(O)=C(C(N)=O)C(=O)[C@@]3(O)C(O)=C1C2=O [Compound 8],MIC,[1]; read-out: MIC,> 32 µg/mL
CN(C)C1C(O)=C(C(N)=O)C(=O)[C@@]2(O)C(O)=C3C(=O)c4c(O)c(CNCC(C)(C)C)cc(CNCC(C)(C)C)c4C[C@H]3C[C@@H]12 (some centres unmarked) [Compound 64],MIC,[1]; read-out: MIC,32 µg/mL
CN(C)c1cc(CNc2nc(-c3ccc(F)cc3)cs2)c(O)c2c1C[C@H]1C[C@H]3C(N(C)C)C(O)=C(C(N)=O)C(=O)[C@@]3(O)C(O)=C1C2=O (some centres unmarked) [Compound 75],MIC,[1]; read-out: MIC,> 32 µg/mL
CN(C)c1cc(CNCC2CCSCC2)c(O)c2c1C[C@H]1C[C@H]3C(N(C)C)C(O)=C(C(N)=O)C(=O)[C@@]3(O)C(O)=C1C2=O (some centres unmarked) [Compound 50],MIC,[1]; read-out: MIC,> 32 µg/mL
CCCCOC(=O)NCc1cc(N(C)C)c2c(c1O)C(=O)C1=C(O)[C@]3(O)C(=O)C(C(N)=O)=C(O)[C@H](N(C)C)[C@@H]3C[C@@H]1C2 [Compound 12],MIC,[1]; read-out: MIC,> 32 µg/mL
CN(C)c1cc(CN(Cc2ccn[nH]2)Cc2ccn[nH]2)c(O)c2c1C[C@H]1C[C@H]3[C@H](N(C)C)C(O)=C(C(N)=O)C(=O)[C@@]3(O)C(O)=C1C2=O [Compound 55],MIC,[1]; read-out: MIC,> 32 µg/mL
CN(C)c1cc(Cn2ccc(C=O)c2)c(O)c2c1C[C@H]1C[C@H]3[C@H](N(C)C)C(O)=C(C(N)=O)C(=O)[C@@]3(O)C(O)=C1C2=O [Compound 69],MIC,[1]; read-out: MIC,> 32 µg/mL
C[C@H]1c2ccc(CN3CCCCC3)c(O)c2C(=O)C2=C(O)[C@]3(O)C(=O)C(C(N)=O)=C(O)[C@@H](N(C)C)[C@@H]3[C@@H](O)[C@@H]21 [Compound 72],MIC,[1]; read-out: MIC,32 µg/mL
CN(C)c1cc(CNCc2cc(F)c(F)c(F)c2)c(O)c2c1C[C@H]1C[C@H]3C(N(C)C)C(O)=C(C(N)=O)C(=O)[C@@]3(O)C(O)=C1C2=O (some centres unmarked) [Compound 77],MIC,[1]; read-out: MIC,> 32 µg/mL
CN(C)c1cc(CNc2ccccc2)c(O)c2c1C[C@H]1C[C@H]3[C@H](N(C)C)C(O)=C(C(N)=O)C(=O)[C@@]3(O)C(O)=C1C2=O [Compound 82],MIC,[1]; read-out: MIC,> 32 µg/mL
CC(N)CNCc1cc(N(C)C)c2c(c1O)C(=O)C1=C(O)[C@]3(O)C(=O)C(C(N)=O)=C(O)C(N(C)C)[C@@H]3C[C@@H]1C2 (some centres unmarked) [Compound 51],MIC,[1]; read-out: MIC,> 32 µg/mL
CN(C)c1ccc(-c2cc(CN)c(O)c3c2C[C@H]2C[C@H]4[C@@H](N(C)C)C(O)=C(C(N)=O)C(=O)[C@@]4(O)C(O)=C2C3=O)cc1 [Compound 28],MIC,[1]; read-out: MIC,> 32 µg/mL
CN(C)c1cc(CNC(=O)Nc2ccc(OC(F)(F)F)cc2)c(O)c2c1C[C@H]1C[C@H]3[C@H](N(C)C)C(O)=C(C(N)=O)C(=O)[C@@]3(O)C(O)=C1C2=O [Compound 27],MIC,[1]; read-out: MIC,8 µg/mL
CN(C)c1cc(CN2CCOCC2)c(O)c2c1C[C@H]1C[C@H]3[C@H](N(C)C)C(O)=C(C(N)=O)C(=O)[C@@]3(O)C(O)=C1C2=O [Compound 80],MIC,[1]; read-out: MIC,16 µg/mL
CN(C)c1cc(CNCC2CCCCC2)c(O)c2c1C[C@H]1C[C@H]3[C@H](N(C)C)C(O)=C(C(N)=O)C(=O)[C@@]3(O)C(O)=C1C2=O [Compound 57],MIC,[1]; read-out: MIC,32 µg/mL
CC(CC(F)(F)F)NCc1cc(N(C)C)c2c(c1O)C(=O)C1=C(O)[C@]3(O)C(=O)C(C(N)=O)=C(O)[C@@H](N(C)C)[C@@H]3C[C@@H]1C2 (some centres unmarked) [Compound 81],MIC,[1]; read-out: MIC,32 µg/mL
CN(C)c1cc(CNC(=O)C2CCCN2)c(O)c2c1C[C@H]1C[C@H]3C(N(C)C)C(O)=C(C(N)=O)C(=O)[C@@]3(O)C(O)=C1C2=O (some centres unmarked) [Compound 58],MIC,[1]; read-out: MIC,16 µg/mL
C=CCCOC(=O)NCc1cc(N(C)C)c2c(c1O)C(=O)C1=C(O)[C@]3(O)C(=O)C(C(N)=O)=C(O)[C@@H](N(C)C)[C@@H]3C[C@@H]1C2 [Compound 9],MIC,[1]; read-out: MIC,> 32 µg/mL
